Source: patent publication US8852869B2, “Method of determining functional deficiencies in the complement system” (Immunobond ApS, priority 2007, dated 2014)

Test system: alternative complement pathway (AP)
Assay: Functional capacity of the alternative pathway on LPS-coated surface
Assay type: biochemical, human
Settings: 10 mM EDTA present in the dilution buffer; data not shown
Experimental: The protocol for the functional capacity of the AP was similar to the method for the CP assay, with the following modification: Lipopolysaccharide W S. typhimurium (10 ug/ml) (lot. 51974, DICO LABORAORIES, US) was coated in 1M NaCl and used as activating surface for AP activation. The serum samples were diluted in dilution buffer with 4 mM Mg^2+, 10 mM EGTA, and 0.05% Tween-20 and were incubated for 60 min at 37° C. The C3, properdin and C9 deposition was measured by adding 100 μl of mAbs.
The influence of PAS on complement activation via the AP was also analyzed. NHS and C2-deficient serum diluted in dilution buffer containing 4 mM Mg^2+ and 10 mM EGTA was incubated in microtiter-wells (PolySorp), coated with LPS as described above in the presence or absence of PAS and deposition of complement components (C3b/C3bi, properdin and C9) was detected.
Various concentrations of PAS were used in order to determine a dose-response curve for PAS. Experiments were performed as described above only with varying the amount of PAS added to the sample.

SMILES: O=C(O)CN(CCN(CC(=O)O)CC(=O)O)CC(=O)O [EDTA]
- Deposition of C3, properdin and C9 (all three complement components): reduced to background levels
